# Measured values: US10130633B2, “Compounds” (BAYER PHARMA AKTIENGESELLSCHAFT, priority 2013, dated 2018)
# Where a name gives a salt, the structure may show the parent alone.
# Columns and labels:
# [1] = tested on: constitutive active colorectal cancer cell (CRC) Wnt pathway; test: HCT116 TOPFlash cellular reporter assay (Super TopFlash luciferase), constitutive active Wnt pathway; type: cell-based; conditions: HCT116 TOP reporter cells, 36 hours incubation, luciferase expression
# Description: In order to discover and characterize small molecules which inhibit the constitutive active colorectal cancer cell (CRC) Wnt pathway, a cellular reporter assay was employed. […] Stable transfectants were generated by cotransfection with pcDNA3 and selection of stable transfected cells with 1 mg/ml G418.
# [2] = tested on: HCT116 FOP control reporter cell line; test: HCT116 FOPFlash control reporter assay (FOP control vector, non-functional TCF elements); type: cell-based; conditions: HCT116 FOP control reporter cells, 36 hours incubation, luciferase expression
# From the text: In a parallel approach, HCT116 cells were cotransfected with the FOP control vector and pcDNA3. The FOP vector is identical to the TOP construct, but it contains instead of functional TCF elements a randomized, non-functional sequence. For this transfection a stable transfected cell line was generated as well.
"IC50 ([1]; Homo sapiens, HCT-116, 36 h)","IC50 ([2]; Homo sapiens, HCT-116, 36 h)",IC50 [1],IC50 [2],SMILES
0.27 µM,≥ 50 µM,,,"CC(C(=O)Nc1cc(C(=O)Nc2ccc(-c3ccc(C(F)F)cc3)nc2)ccc1OC(F)(F)F)N1CCOCC1 (centres unmarked) [Example 112, N-{6-[4-(difluoromethyl)phenyl]pyridin-3-yl}-3-{[2-(morpholin-4-yl)propanoyl]amino}-4-(trifluoromethoxy)benzamide]"
,,0.33 µM,15 µM,"CC(C(=O)Nc1cc(NC(=O)c2ccc(-c3cc(F)cc(F)c3)nc2)ccc1OC(F)(F)F)N1CC2CCC(C1)O2 (centres unmarked) [Example 218, 6-(3,5-difluorophenyl)-N-[3-{[2-(8-oxa-3-azabicyclo[3.2.1]oct-3-yl)propanoyl]amino}-4-(trifluoromethoxy)phenyl] nicotinamide]"
0.935 µM,9.3 µM,,,"O=C(CN1CCOCC1)Nc1cc(C(=O)Nc2nnc(-c3ccc(F)cc3)s2)ccc1OC(F)(F)F [Example 99, N-[5-(4-fluorophenyl)-1,3,4-thiadiazol-2-yl]-3-[(morpholin-4-ylacetyl)amino]-4-(trifluoromethoxy)benzamide]"
0.463 µM,≥ 50 µM,,,"O=C(Nc1ccc(OC(F)(F)F)c(NC(=O)C2(N3CCOCC3)CC2)c1)c1cnc(-c2ccccc2)s1 [Example 108, N-[3-({[1-(morpholin-4-yl)cyclopropyl]carbonyl}amino)-4-(trifluoromethoxy)phenyl]-2-phenyl-1,3-thiazole-5-carboxamide]"
0.855 µM,≥ 50 µM,,,"Cc1cccc(-c2nnc(NC(=O)c3ccc(OC(F)(F)F)c(NC(=O)CN4CCOCC4)c3)s2)c1 [Example 96, N-[5-(3-methylphenyl)-1,3,4-thiadiazol-2-yl]-3-[(morpholin-4-ylacetyl)amino]-4-(trifluoromethoxy)benzamide]"
,,0.028 µM,7.7 µM,"CC(C(=O)Nc1cc(C(=O)Nc2ccc(-c3cccc(F)c3)nc2)ccc1OC(F)(F)F)N1C[C@@H]2C[C@H]1CO2 (relative stereo) [Example 243, N-[6-(3-fluorophenyl)pyridin-3-yl]-3-({(2R*)-2-[(1S,4S)-2-oxa-5-azabicyclo[2.2.1]hept-5-yl]propanoyl}amino)-4-(trifluoromethoxy)benzamide]"
1.93 µM,≥ 50 µM,,,"O=C(CN1CCOCC1)Nc1cc(C(=O)Nc2nnc(-c3ccc([N+](=O)[O-])cc3)s2)ccc1OC(F)(F)F [Example 97, 3-[(morpholin-4-ylacetyl)amino]-N-[5-(4-nitrophenyl)-1,3,4-thiadiazol-2-yl]-4-(trifluoromethoxy)benzamide]"
0.362 µM,≥ 50 µM,,,"CN(C)C1(C(=O)Nc2cc(C(=O)Nc3ccc(-c4ccccc4F)nc3)ccc2OC(F)(F)F)CC1 [Example 179, 3-({[1-(dimethylamino)cyclopropyl]carbonyl}amino)-N-[6-(2-fluorophenyl)pyridin-3-yl]-4-(trifluoromethoxy)benzamide]"
,,0.00785 µM,5.2 µM,"CC(C(=O)Nc1cc(C(=O)Nc2ccc(-c3cc(F)cc(F)c3)nc2)ccc1OC(F)(F)F)N1CCOCC1 (centres unmarked) [Example 245, N-[6-(3,5-difluorophenyl)pyridin-3-yl]-3-{[2-(morpholin-4-yl)propanoyl]amino}-4-(trifluoromethoxy)benzamide]"
,,0.0955 µM,5.4 µM,"CC(C(=O)Nc1cc(NC(=O)c2ccc(-c3cc(F)cc(F)c3)nc2)ccc1OC(F)(F)F)N1CC2CCC(C1)O2 (centres unmarked) [Example 186, 6-(3,5-difluorophenyl)-N-[3-{[2-(8-oxa-3-azabicyclo[3.2.1]oct-3-yl)propanoyl]amino}-4-(trifluoromethoxy)phenyl] nicotinamide]"
,,0.029 µM,≥ 50 µM,"CC(C(=O)Nc1cc(C(=O)Nc2ccc(-c3cccc(F)c3)nc2)ccc1OC(F)(F)F)N1CCOCC1 (centres unmarked) [Example 183, N-[6-(3-fluorophenyl)pyridin-3-yl]-3-{[2-(morpholin-4-yl)propanoyl]amino}-4-(trifluoromethoxy)benzamide]"
,,0.0424 µM,3.8 µM,"CC(C(=O)Nc1cc(C(=O)Nc2ccc(-c3cc(F)cc(F)c3)nc2)ccc1OC(F)(F)F)N1CC2CCC(C1)O2 (centres unmarked) [Example 178, N-[6-(3,5-difluorophenyl)pyridin-3-yl]-3-{[2-(8-oxa-3-azabicyclo[3.2.1]oct-3-yl)propanoyl]amino}-4-(trifluoromethoxy)benzamide]"
0.39 µM,≥ 50 µM,,,"CN1CCN(CC(=O)Nc2cc(C(=O)Nc3nnc(-c4ccccc4C(F)(F)F)s3)ccc2OC(F)(F)F)CC1 [Example 270, 3-{[(4-methylpiperazin-1-yl)acetyl]amino}-4-(trifluoromethoxy)-N-{5-[2-(trifluoromethyl)phenyl]-1,3,4-thiadiazol-2-yl}benzamide]"
,,0.148 µM,9.8 µM,"CC(C(=O)Nc1cc(C(=O)Nc2ccc(-c3cc(F)cc(F)c3)nc2)ccc1OC(F)(F)F)N1C[C@@H]2C[C@H]1CO2 (relative stereo) [Example 180, N-[6-(3,5-difluorophenyl)pyridin-3-yl]-3-({(2R*)-2-[(1S,4S)-2-oxa-5-azabicyclo[2.2.1]hept-5-yl]propanoyl}amino)-4-(trifluoromethoxy)benzamide]"
0.285 µM,≥ 50 µM,,,"COC(=O)c1ccc(C(=O)Nc2nnc(-c3ccccc3)s2)cc1NC(=O)CN1CCOCC1 [Example 106, methyl 2-[(morpholin-4-ylacetyl)amino]-4-[(5-phenyl-1,3,4-thiadiazol-2-yl)carbamoyl]benzoate]"
0.152 µM,29.5 µM,,,"CN1CCN(CC(=O)Nc2cc(C(=O)Nc3ccc(-c4ccccc4F)nc3)ccc2C(F)(F)F)CC1 [Example 210, N-[6-(2-fluorophenyl)pyridin-3-yl]-3-{[(4-methylpiperazin-1-yl)acetyl]amino}-4-(trifluoromethyl)benzamide]"
1.2 µM,34 µM,,,"CN1CCN(CC(=O)Nc2cc(C(=O)Nc3ccc(-c4ccccc4F)nc3)ccc2OC(F)(F)F)CC1 [Example 197, N-[6-(2-fluorophenyl)pyridin-3-yl]-3-{[(4-methylpiperazin-1-yl)acetyl]amino}-4-(trifluoromethoxy)benzamide]"
0.948 µM,28 µM,,,"CC1CN(CC(=O)Nc2cc(C(=O)Nc3nnc(-c4ccccc4)s3)ccc2OC(F)(F)F)CCN1C (centres unmarked) [Example 160, 3-{[(3,4-dimethylpiperazin-1-yl)acetyl]amino}-N-(5-phenyl-1,3,4-thiadiazol-2-yl)-4-(trifluoromethoxy)benzamide]"
0.057 µM,≥ 50 µM,,,"C[C@H]1CN(CC(=O)Nc2cc(C(=O)Nc3ccc(-c4ccccc4F)nc3)ccc2OC(F)(F)F)CCN1C [Example 163, 3-({[(3S)-3,4-dimethylpiperazin-1-yl]acetyl}amino)-N-[6-(2-fluorophenyl)pyridin-3-yl]-4-(trifluoromethoxy)benzamide]"
0.22 µM,16 µM,,,"CN(C)C1(C(=O)Nc2cc(C(=O)Nc3ccc(-c4cc(F)cc(F)c4)nc3)ccc2OC(F)(F)F)CC1 [Example 251, N-[6-(3,5-difluorophenyl)pyridin-3-yl]-3-({[1-(dimethylamino)cyclopropyl]carbonyl}amino)-4-(trifluoromethoxy)benzamide]"
0.42 µM,≥ 50 µM,,,"O=C(CN1CCOCC1)Nc1cc(C(=O)Nc2nnc(-c3cccc(Cl)c3)s2)ccc1OC(F)(F)F [Example 154, N-[5-(3-chlorophenyl)-1,3,4-thiadiazol-2-yl]-3-[(morpholin-4-ylacetyl)amino]-4-(trifluoromethoxy)benzamide]"
0.245 µM,6.5 µM,,,"O=C(CN1CC2CCC(C1)O2)Nc1cc(C(=O)Nc2ccc(-c3ccccc3F)nc2)ccc1C(F)(F)F [Example 226, N-[6-(2-fluorophenyl)pyridin-3-yl]-3-[(8-oxa-3-azabicyclo[3.2.1]oct-3-ylacetyl)amino]-4-(trifluoromethyl)benzamide]"
1.22 µM,≥ 50 µM,,,"COc1ccc(NC(=O)c2ccc(-c3ccccc3)nc2)cc1NC(=O)CN1CCOCC1 [Example 34, N-{4-methoxy-3-[(morpholin-4-ylacetyl)amino]phenyl}-6-phenylnicotinamide]"
0.444 µM,9.9 µM,,,"CC(C)(C)c1ccc(NC(=O)c2ccc(-c3ccccc3)nc2)cc1NC(=O)CN1CCOCC1 [Example 18, N-{4-tert-butyl-3-[(morpholin-4-ylacetyl)amino]phenyl}-6-phenylnicotinamide]"
0.195 µM,≥ 50 µM,,,"Cc1ccccc1-c1nnc(NC(=O)c2ccc(OC(F)(F)F)c(NC(=O)CN3CCN(C)CC3)c2)s1 [Example 144, N-[5-(2-methylphenyl)-1,3,4-thiadiazol-2-yl]-3-{[(4-methylpiperazin-1-yl)acetyl]amino}-4-(trifluoromethoxy)benzamide]"
,,0.382 µM,≥ 50 µM,"CC(C(=O)Nc1cc(NC(=O)c2ccc(-c3ccccc3F)nc2)ccc1OC(F)(F)F)N1CCOCC1 (centres unmarked) [Example 224, 6-(2-fluorophenyl)-N-[3-{[2-(morpholin-4-yl)propanoyl]amino}-4-(trifluoromethoxy)phenyl] nicotinamide]"

SMILES,"IC50 ([1]; Homo sapiens, HCT-116, 36 h)","IC50 ([2]; Homo sapiens, HCT-116, 36 h)",IC50 [1],IC50 [2]
"COCc1ccc(C(=O)Nc2nnc(-c3ccccc3C)s2)cc1NC(=O)CN1CCN(C)CC1 [Example 177, 4-(methoxymethyl)-N-[5-(2-methylphenyl)-1,3,4-thiadiazol-2-yl]-3-{[(4-methylpiperazin-1-yl)acetyl]amino}benzamide hydrochloride (1:1)]",0.46 µM,35 µM,,
"CN1C2CCC1CN(CC(=O)Nc1cc(C(=O)Nc3ccc(-c4ccccc4F)nc3)ccc1OC(F)(F)F)C2 [Example 166, N-[6-(2-fluorophenyl)pyridin-3-yl]-3-{[(8-methyl-3,8-diazabicyclo[3.2.1]oct-3-yl)acetyl]amino}-4-(trifluoromethoxy)benzamide]",0.148 µM,3.9 µM,,
